In US10626095B2, “Cyanotriazole compounds” (OTSUKA PHARMACEUTICAL CO., LTD., priority 2013, dated 2020) one finds EC50 data, which are given here for 30 compounds.

Molecules are shown by their SMILES.

For the test, the system named is NaCT-CHO (CHO cells stably expressing human NaCT). Description: Assay of the citric acid cycle activation ([1,5-14C]-citric acid, diffusion of [14C]-CO2). The class given is cell-based. The following applies: 1 hour incubation at 37° C. with [1,5-14C]-citric acid. An excerpt: Assay of the Citric Acid Cycle Activation
(1) Construction of the Human NaCT Expression Vector pME-NaCT
The human NaCT (also called SLC13A5 or NAC2; GenBank accession No. NM_177550) cDNA was inserted into the EcoRI-NotI site of the mammalian expression vector pME18S (GenBank accession No. AB009864) and purified by Qiagen Plasmid Maxi Kit (Qiagen).
(2) Establishment of NaCT Stably Expressed CHO Cells
The pME-NaCT vector and the pcDNA™3.1 vector containing the neomycin resistance gene (Life Technologies) were co-transfected into CHO-K1 cells (ATCC) by Lipofectaimine 2000 reagent (Life Technologies). The next day the cells were subcultured in Nutrient Mixture F-12 Ham (Sigma-Aldrich) with 10% FBS (Biological Industries), and Geneticin (Life Technologies) was added (final concentration 350 μg/mL) in the following day. CHO cell clones stably expressing NaCT were given by neomycin resistant cell screening and limiting dilution method. Established cell lines (named NaCT-CHO) were also maintained in culture medium (Nutrient Mixture F-12 Ham) with 10% FBS and 350 μg/mL Geneticin. For control cells (named pME-CHO) preparation, the naive pME18S were also transfected instead of pME-NaCT into CHO-K1 cells.
(3) Assay of the Citric Acid Cycle Activation
NaCT-CHO and pME-CHO were plated at 20,000 cells/well into white CulturPlate™-96 (PerkinElmer) two days before the assay. Prior to assay incubation, the cultured plates were washed twice with washing buffer, 10 mM HEPES-Tris(pH7.4) containing 140 mM choline chloride, 2 mM KCl, 1 mM CaCl2, 1 mM MgCl2. The compounds to be tested were dissolved and diluted in DMSO (Wako Pure Chemical industries) to 1,000 times of a final concentration, and further diluted to two times as high as the final concentration in assay buffer, 10 mM HEPES-Tris(pH7.4) containing 140 mM NaCl, 2 mM KCl, 1 mM CaCl2, 1 mM MgCl2. The range of final concentrations was properly determined based on the test compounds activity. Each 25 μL compound solution was added to well and subsequently 25 μL radio-labeled substrate solution containing 0.4 mM (0.4 MBq/mL) [1,5-^14C]-citric acid (PerkinElmer) in the assay buffer was added. After 1 hour incubation at 37° C., the reaction mixture was discarded and washed three times with pre-chilled washing buffer and then 0.1 mL MicroScint 20 (PerkinElmer) was added to well. The plate was sealed with TopSeal-A (PerkinElmer) and the radioactivity was measured using a TopCount (PerkinElmer). Non-specific activity (NS cpm) and total radio activity (Total cpm) were determined by counting of pME-CHO plated wells and NaCT-CHO plated wells without compounds, respectively. Diffusion of [^14C]—CO2 was able to be estimated from residual radioactivity (R cpm) by an equation (Total−R)/(Total−NS)×100(%). The difference of Total and R was disappeared in the presence of 0.1 μM antimycin A. EC50 values were calculated by regression analysis using SAS Statistical Analysis System (SAS institute Japan Ltd. Release 9.1).
On to `CCN(c1cccc(C(F)(F)F)c1)c1nc(-c2nn[nH]c2C#N)cs1` [Example 84, 5-{2-[N-ethyl-N-(3-trifluoromethyl-phenyl)-amino]-thiazol-4-yl}-3H-[1,2,3]triazole-4-carbonitrile], for which the concentration giving a half-maximal response (EC50) is 1500 nM. That is a single-digit micromolar value. For `N#Cc1[nH]nnc1-c1csc(Oc2cccc(C(F)(F)F)c2)n1` [Example 85, 5-[2-(3-trifluoromethyl-phenoxy)-thiazol-4-yl]-3H-[1,2,3]triazole-4-carbonitrile] the value was 690 nM. For `N#Cc1[nH]nnc1-c1csc(Sc2ccc(Cl)cc2)n1` [Example 86, 5-[2-(4-chloro-phenylsulfanyl)-thiazol-4-yl]-3H-[1,2,3]triazole-4-carbonitrile], the half-maximal effective concentration (EC50) was determined as 670 nM. For `CCCCCCc1nc(-c2nn[nH]c2C#N)cs1` [Example 87, 5-(2-hexyl-thiazol-4-yl)-3H-[1,2,3]triazole-4-carbonitrile] the value was 900 nM. For `N#Cc1[nH]nnc1-c1csc(C23CC4CC(CC(C4)C2)C3)n1` [Example 88, 5-(2-(adamantan-1-yl)-thiazol-4-yl)-3H-[1,2,3]triazole-4-carbonitrile] the value was 620 nM; for `Cc1sc(-c2ccc(Cl)cc2)nc1-c1nn[nH]c1C#N` [Example 89, 5-[2-(4-chloro-phenyl)-5-methyl-thiazol-4-yl]-3H-[1,2,3]triazole-4-carbonitrile], 760 nM; for `Cc1sc(-c2cccc(C(F)(F)F)c2)nc1-c1nn[nH]c1C#N` [Example 91, 5-[5-methyl-2-(3-trifluoromethyl-phenyl)-thiazol-4-yl]-3H-[1,2,3]triazole-4-carbonitrile], 700 nM. `Cc1sc(-c2ccc(C(F)(F)F)cn2)nc1-c1nn[nH]c1C#N` [Example 93, 5-[5-methyl-2-(5-trifluoromethyl-pyridin-2-yl)-thiazol-4-yl]-3H-[1,2,3]triazole-4-carbonitrile] showed an EC50 of 580 nM. For `Cc1sc(-c2cccc(C(F)(F)F)n2)nc1-c1nn[nH]c1C#N` [Example 94, 5-[5-methyl-2-(6-trifluoromethyl-pyridin-2-yl)-thiazol-4-yl]-3H-[1,2,3]triazole-4-carbonitrile] the value was 790 nM; for `Cc1sc(-c2ccc(Cl)cn2)nc1-c1nn[nH]c1C#N` [Example 95, 5-[2-(5-chloro-pyridin-2-yl)-5-methyl-thiazol-4-yl]-3H-[1,2,3]triazole-4-carbonitrile], 740 nM; for `Cc1sc(Oc2ccc(OC(F)(F)F)cc2)nc1-c1nn[nH]c1C#N` [Example 96, 5-[5-methyl-2-(4-trifluoromethoxy-phenoxy)-thiazol-4-yl]-3H-[1,2,3]triazole-4-carbonitrile], 670 nM. Turning to `Cc1sc(Sc2cccc(C(F)(F)F)c2)nc1-c1nn[nH]c1C#N` [Example 97, 5-[5-methyl-2-(3-trifluoromethyl-phenylsulfanyl)-thiazol-4-yl]-3H-[1,2,3]triazole-4-carbonitrile], the EC50 turned out to be 500 nM. In the case of `CCc1sc(-c2cccc(C(F)(F)F)c2)nc1-c1nn[nH]c1C#N` [Example 99, 5-[5-ethyl-2-(3-trifluoromethyl-phenyl)-thiazol-4-yl]-3H-[1,2,3]triazole-4-carbonitrile] it was 540 nM; in that of `CCc1sc(-c2ccc(C(F)(F)F)nc2)nc1-c1nn[nH]c1C#N` [Example 101, 5-[5-ethyl-2-(6-trifluoromethyl-pyridin-3-yl)-thiazol-4-yl]-3H-[1,2,3]triazole-4-carbonitrile], 850 nM. For `CCc1sc(Oc2ccc(Cl)cc2)nc1-c1nn[nH]c1C#N` [Example 102] the value was 360 nM. With `CCCc1sc(-c2ccc(Cl)cc2)nc1-c1nn[nH]c1C#N` [Example 103, 5-[2-(4-chloro-phenyl)-5-propyl-thiazol-4-yl]-3H-[1,2,3]triazole-4-carbonitrile], the EC50 is 230 nM. This EC50 lies about 1.6-fold lower than the previous one. Compound `CCCc1sc(-c2cccc(C(F)(F)F)c2)nc1-c1nn[nH]c1C#N` [Example 104, 5-[5-propyl-2-(3-trifluoromethyl-phenyl)-thiazol-4-yl]-3H-[1,2,3]triazole-4-carbonitrile] came in with a 50% effective concentration (EC50) of 700 nM. Compared with the last compound, the EC50 is about 3-fold higher. For `N#Cc1[nH]nnc1-c1nc(-c2ccc(Cl)cc2)sc1C1CC1` [Example 105, 5-[2-(4-chloro-phenyl)-5-cyclopropyl-thiazol-4-yl]-3H-[1,2,3]triazole-4-carbonitrile] the value was 1910 nM; for `CC(C)Cc1sc(-c2ccc(Cl)cc2)nc1-c1nn[nH]c1C#N` [Example 106, 5-[2-(4-chloro-phenyl)-5-isobutyl-thiazol-4-yl]-3H-[1,2,3]triazole-4-carbonitrile], 840 nM.

`N#Cc1[nH]nnc1-c1nc(-c2ccc(Cl)cc2)sc1-c1ccc(C(F)(F)F)cc1` [Example 107, 5-[2-(4-chloro-phenyl)-5-(4-trifluoromethyl-phenyl)-thiazol-4-yl]-3H-[1,2,3]triazole-4-carbonitrile] returned a 50% effective concentration (EC50) of 2560 nM. For the compound `N#Cc1[nH]nnc1-c1nc(Oc2ccc(OC(F)(F)F)cc2)sc1Cl` [Example 109, 5-[5-chloro-2-(4-trifluoromethoxy-phenoxy)-thiazol-4-yl]-3H-[1,2,3]triazole-4-carbonitrile], the EC50 was found to be 670 nM. Compound `COc1sc(-c2ccc(Cl)cc2)nc1-c1nn[nH]c1C#N` [Example 110, 5-[2-(4-chloro-phenyl)-5-methoxy-thiazol-4-yl]-3H-[1,2,3]triazole-4-carbonitrile] had an EC50 of 3230 nM.

Take `N#Cc1[nH]nnc1-c1cnc(-c2cccc(C(F)(F)F)c2)s1` [Example 111, 5-[2-(3-trifluoromethyl-phenyl)-thiazol-5-yl]-3H-[1,2,3]triazole-4-carbonitrile]: the EC50 is 750 nM.

For `N#Cc1[nH]nnc1-c1cnc(/C=C/c2cccc(C(F)(F)F)c2)s1` [Example 112, 5-{2-[(E)-2-(3-trifluoromethyl-phenyl)-vinyl]-thiazol-5-yl}-3H-[1,2,3]triazole-4-carbonitrile], the 50% effective concentration (EC50) came to 790 nM. `Cc1nc(-c2ccc(Cl)cc2)sc1-c1nn[nH]c1C#N` [Example 113, 5-[2-(4-chloro-phenyl)-4-methyl-thiazol-5-yl]-3H-[1,2,3]triazole-4-carbonitrile] displayed a concentration for a half-maximal effect (EC50) of 790 nM. For `Cc1nc(-c2cccc(C(F)(F)F)c2)sc1-c1nn[nH]c1C#N` [Example 114, 5-[4-methyl-2-(3-trifluoromethyl-phenyl)-thiazol-5-yl]-3H-[1,2,3]triazole-4-carbonitrile] the value was 450 nM; for `CCc1nc(-c2ccc(Cl)cc2)sc1-c1[nH]nnc1C#N` [Example 115, 5-[2-(4-chloro-phenyl)-4-ethyl-thiazol-5-yl]-1H-[1,2,3]triazole-4-carbonitrile], 650 nM; for `N#Cc1[nH]nnc1-c1sc(-c2ccc(F)c(Cl)c2)nc1C(F)(F)F` [Example 116, 5-[2-(3-chloro-4-fluoro-phenyl)-4-trifluoromethyl-thiazol-5-yl]-3H-[1,2,3]triazole-4-carbonitrile], 4130 nM. For `N#Cc1[nH]nnc1-c1coc(-c2ccc(OC(F)(F)F)cc2)n1` [Example 117, 5-[2-(4-trifluoromethoxy-phenyl)-oxazol-4-yl]-3H-[1,2,3]triazole-4-carbonitrile] the value was 1590 nM. For the compound `CCCc1oc(-c2ccc(Cl)cc2)nc1-c1nn[nH]c1C#N` [Example 119, 5-[2-(4-chloro-phenyl)-5-propyl-oxazol-4-yl]-3H-[1,2,3]triazole-4-carbonitrile], the EC50 was determined as 710 nM.

In general, EC50 refers to the concentration needed to bring the measured effect to its halfway point. A higher EC50 goes with weaker potency.
